Earlier results in patent US10155994B2, “Methods of detecting DDR2 mutations” (QUEST DIAGNOSTICS INVESTMENTS INCORPORATED, priority 2012, dated 2018).

Conditions: current daily oral dosing; from Bradeen et al. Blood 2006

Row | SMILES | achievable plasma trough concentration [nM]
1 | Cc1nc(Nc2ncc(C(=O)Nc3c(C)cccc3Cl)s2)cc(N2CCN(CCO)CC2)n1 [dasatinib] | 100
2 | Cc1cn(-c2cc(NC(=O)c3ccc(C)c(Nc4nccc(-c5cccnc5)n4)c3)cc(C(F)(F)F)c2)cn1 [nilotinib] | 2000
